Source: ChEMBL document CHEMBL1201862, “PubChem BioAssay data set” (2004)
The source made the active and inactive calls.

How the values were obtained:
Cytochrome P450 2C19 = Cytochrome P450 2C19 (Homo sapiens, UniProt P33261); assay: Cytochrome panel assay with activity outcomes. Panel member name: p450-cyp2c19 Compounds with AC50 equal or less than 10 uM are considered active; format: functional
Cytochrome P450 2C9 = Cytochrome P450 2C9 (Homo sapiens, UniProt P11712)
Fatty acid synthase [1] = biological target: T1, Fatty acid synthase (Homo sapiens, UniProt P49327); assay: inhibition of human FAS-TE enzyme activity – biochemical, endpoint fluorescence intensity, uHTS hits, dose response (AID 624327); format: functional;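 further: fluorescence from hydrolysis of an O-methyl fluorescein acyl ester substrate by the enzyme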
T1 sequence (P49327 whole entry): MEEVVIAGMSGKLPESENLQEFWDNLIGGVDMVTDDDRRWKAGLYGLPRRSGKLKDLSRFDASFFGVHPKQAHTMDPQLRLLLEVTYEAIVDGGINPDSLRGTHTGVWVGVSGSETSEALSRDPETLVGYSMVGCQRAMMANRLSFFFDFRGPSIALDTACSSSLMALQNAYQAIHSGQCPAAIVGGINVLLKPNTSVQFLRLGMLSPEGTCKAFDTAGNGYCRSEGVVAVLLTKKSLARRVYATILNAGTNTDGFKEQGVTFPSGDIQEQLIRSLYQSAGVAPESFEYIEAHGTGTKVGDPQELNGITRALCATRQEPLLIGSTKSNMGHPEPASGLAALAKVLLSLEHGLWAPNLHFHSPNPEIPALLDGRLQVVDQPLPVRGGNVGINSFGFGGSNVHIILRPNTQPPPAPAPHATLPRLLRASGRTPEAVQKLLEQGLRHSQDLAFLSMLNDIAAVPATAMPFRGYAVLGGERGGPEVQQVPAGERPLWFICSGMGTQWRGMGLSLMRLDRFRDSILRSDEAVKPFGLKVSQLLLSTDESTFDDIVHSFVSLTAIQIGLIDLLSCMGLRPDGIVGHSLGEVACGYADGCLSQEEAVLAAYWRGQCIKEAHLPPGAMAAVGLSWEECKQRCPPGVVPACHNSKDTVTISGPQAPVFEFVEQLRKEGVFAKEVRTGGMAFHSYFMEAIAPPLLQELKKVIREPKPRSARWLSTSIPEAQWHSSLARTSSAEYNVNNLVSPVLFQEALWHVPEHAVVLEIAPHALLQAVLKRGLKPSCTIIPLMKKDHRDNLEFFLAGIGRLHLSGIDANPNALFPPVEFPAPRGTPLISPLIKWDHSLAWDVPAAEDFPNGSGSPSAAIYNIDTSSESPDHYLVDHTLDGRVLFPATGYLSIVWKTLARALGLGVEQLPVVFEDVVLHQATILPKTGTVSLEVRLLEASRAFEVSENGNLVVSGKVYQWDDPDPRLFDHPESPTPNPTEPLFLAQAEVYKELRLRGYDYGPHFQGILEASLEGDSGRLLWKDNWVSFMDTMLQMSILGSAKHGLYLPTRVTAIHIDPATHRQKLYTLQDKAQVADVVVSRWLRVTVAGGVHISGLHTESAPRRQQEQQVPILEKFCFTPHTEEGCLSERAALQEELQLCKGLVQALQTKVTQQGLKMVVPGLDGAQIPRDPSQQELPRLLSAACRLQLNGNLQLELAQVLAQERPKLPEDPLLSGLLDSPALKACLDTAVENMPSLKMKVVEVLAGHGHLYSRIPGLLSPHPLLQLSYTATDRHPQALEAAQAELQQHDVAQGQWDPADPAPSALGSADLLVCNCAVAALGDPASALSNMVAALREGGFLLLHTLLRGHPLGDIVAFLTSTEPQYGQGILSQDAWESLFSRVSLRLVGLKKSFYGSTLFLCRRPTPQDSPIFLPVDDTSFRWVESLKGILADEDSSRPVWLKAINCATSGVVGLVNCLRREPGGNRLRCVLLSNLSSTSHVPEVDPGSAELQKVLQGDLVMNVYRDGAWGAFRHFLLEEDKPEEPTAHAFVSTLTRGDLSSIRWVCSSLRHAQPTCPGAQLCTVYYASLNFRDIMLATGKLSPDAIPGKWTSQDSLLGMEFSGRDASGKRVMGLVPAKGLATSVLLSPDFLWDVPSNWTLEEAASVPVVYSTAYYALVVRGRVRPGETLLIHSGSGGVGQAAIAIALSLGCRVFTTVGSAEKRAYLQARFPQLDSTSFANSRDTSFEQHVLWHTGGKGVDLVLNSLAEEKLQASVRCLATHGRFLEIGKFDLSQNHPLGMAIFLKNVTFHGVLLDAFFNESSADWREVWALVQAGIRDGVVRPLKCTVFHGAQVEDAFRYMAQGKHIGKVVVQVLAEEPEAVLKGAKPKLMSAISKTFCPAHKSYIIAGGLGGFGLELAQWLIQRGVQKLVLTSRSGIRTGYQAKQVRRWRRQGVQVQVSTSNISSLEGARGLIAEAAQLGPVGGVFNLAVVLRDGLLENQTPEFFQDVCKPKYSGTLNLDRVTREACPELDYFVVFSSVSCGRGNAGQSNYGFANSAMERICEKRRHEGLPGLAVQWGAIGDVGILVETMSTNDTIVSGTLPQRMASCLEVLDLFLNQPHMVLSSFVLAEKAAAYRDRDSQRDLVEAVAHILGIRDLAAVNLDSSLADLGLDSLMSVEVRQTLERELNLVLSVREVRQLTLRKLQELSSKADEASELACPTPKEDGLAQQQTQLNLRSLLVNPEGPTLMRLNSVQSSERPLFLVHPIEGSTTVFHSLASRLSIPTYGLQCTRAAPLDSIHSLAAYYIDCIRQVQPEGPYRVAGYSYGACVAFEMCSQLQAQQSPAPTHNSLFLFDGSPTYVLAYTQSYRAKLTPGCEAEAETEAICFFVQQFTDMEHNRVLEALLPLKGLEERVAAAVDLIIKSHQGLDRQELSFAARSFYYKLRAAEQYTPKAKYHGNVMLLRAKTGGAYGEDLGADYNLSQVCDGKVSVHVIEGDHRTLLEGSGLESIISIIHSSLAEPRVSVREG

Fatty acid synthase [2] = biological target: T1, Fatty acid synthase; assay: inhibition of human FAS-TE enzyme activity – biochemical, kinetic fluorescence intensity, dose response (AID 624326); format: functional;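 further: rate of fluorescence rise from hydrolysis of a fluorogenic O-methyl fluorescein ester substrate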
Cytochrome P450 3A4 = Cytochrome P450 3A4 (Homo sapiens, UniProt P08684);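 further: CYP3A4 tested as one member of a cytochrome P450 panel screen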
Sequence of Cytochrome P450 3A4 (P08684 whole entry): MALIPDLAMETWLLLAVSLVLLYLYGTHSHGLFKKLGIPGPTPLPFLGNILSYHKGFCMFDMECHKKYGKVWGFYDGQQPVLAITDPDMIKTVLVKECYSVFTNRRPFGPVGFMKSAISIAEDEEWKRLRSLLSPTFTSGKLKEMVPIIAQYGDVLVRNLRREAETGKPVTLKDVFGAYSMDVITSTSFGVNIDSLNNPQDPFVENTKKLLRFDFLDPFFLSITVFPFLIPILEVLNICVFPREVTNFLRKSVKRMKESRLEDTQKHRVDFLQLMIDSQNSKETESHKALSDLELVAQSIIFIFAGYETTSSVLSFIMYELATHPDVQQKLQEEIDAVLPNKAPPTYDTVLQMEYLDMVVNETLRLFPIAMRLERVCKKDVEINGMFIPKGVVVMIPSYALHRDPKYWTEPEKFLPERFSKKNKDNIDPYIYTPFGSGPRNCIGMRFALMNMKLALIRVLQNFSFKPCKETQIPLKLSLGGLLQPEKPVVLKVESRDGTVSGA

[3] = system: Streptococcus sp. 'group A'; assay: Streptococcus pyogenes SK(-)GAS viability under kanamycin – luminescence, BacTiterGlo, confirmation, counter-screen for streptokinase expression inhibitor project, dose response (AID 1900); format: functional, organism-based
BJ [4] = assay: growth inhibition of engineered Ras-driven BJ cells – cell-based, alamar blue fluorescence, cherrypicked samples, dose response (AID 2631); format: functional; conditions: Homo sapiens;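 further: confirmatory dose-response assay in RAS-dependent BJ fibroblasts engineered with TERT, LT and ST, with cytotoxicity read by fluorescence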
Streptokinase A = biological target: T2, Streptokinase A (Streptococcus pyogenes serotype M1, UniProt P10520); assay: viability-normalized secreted streptokinase activity reduction – plasminogen activation absorbance, OD405, dose response (AID 1914); format: functional, Streptococcus pyogenes M1 GAS;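 further: secreted streptokinase activity via plasminogen activation per viability signal from cell pellet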
T2 sequence (P10520 whole entry): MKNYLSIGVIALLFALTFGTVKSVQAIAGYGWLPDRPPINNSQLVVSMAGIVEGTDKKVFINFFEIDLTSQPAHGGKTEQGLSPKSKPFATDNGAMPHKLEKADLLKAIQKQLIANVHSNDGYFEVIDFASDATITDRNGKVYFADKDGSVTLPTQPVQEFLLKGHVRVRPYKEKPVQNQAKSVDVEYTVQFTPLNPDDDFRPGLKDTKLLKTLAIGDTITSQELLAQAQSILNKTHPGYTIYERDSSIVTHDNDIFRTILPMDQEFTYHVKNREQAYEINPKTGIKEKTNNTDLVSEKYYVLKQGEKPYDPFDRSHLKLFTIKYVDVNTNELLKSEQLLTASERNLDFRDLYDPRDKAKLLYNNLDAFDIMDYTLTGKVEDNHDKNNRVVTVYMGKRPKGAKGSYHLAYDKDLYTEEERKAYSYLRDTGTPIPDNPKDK

Streptococcus = assay: GAS UMAA2166 growth inhibition – luminescence, BacTiterGlo, counter-screen for streptokinase expression inhibitor project, dose response (AID 1915); format: functional, organism-based;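 further: potency for reduction of bacterial viability or growth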
[5] = biological target: T3, Sentrin-specific protease 8 (Homo sapiens, UniProt Q96LD8); format: functional;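 further: luminescence read-out of SENP8 inhibition, dose-response confirmation following an ultra-high-throughput screen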
T3 sequence (Q96LD8 whole entry): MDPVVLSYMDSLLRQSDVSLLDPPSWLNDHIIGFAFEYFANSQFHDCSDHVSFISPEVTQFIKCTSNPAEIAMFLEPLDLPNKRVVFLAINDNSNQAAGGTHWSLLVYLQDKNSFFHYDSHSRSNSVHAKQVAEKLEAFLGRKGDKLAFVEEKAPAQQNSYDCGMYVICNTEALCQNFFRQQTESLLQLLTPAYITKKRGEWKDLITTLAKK

[6] = biological target: T4, Sentrin-specific protease 6 (Homo sapiens, UniProt Q9GZR1); format: functional;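 further: Luminescence-based dose-response confirmatory assay of SENP6 inhibition, following up an ultra-high-throughput screen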
T4 sequence (Q9GZR1 whole entry): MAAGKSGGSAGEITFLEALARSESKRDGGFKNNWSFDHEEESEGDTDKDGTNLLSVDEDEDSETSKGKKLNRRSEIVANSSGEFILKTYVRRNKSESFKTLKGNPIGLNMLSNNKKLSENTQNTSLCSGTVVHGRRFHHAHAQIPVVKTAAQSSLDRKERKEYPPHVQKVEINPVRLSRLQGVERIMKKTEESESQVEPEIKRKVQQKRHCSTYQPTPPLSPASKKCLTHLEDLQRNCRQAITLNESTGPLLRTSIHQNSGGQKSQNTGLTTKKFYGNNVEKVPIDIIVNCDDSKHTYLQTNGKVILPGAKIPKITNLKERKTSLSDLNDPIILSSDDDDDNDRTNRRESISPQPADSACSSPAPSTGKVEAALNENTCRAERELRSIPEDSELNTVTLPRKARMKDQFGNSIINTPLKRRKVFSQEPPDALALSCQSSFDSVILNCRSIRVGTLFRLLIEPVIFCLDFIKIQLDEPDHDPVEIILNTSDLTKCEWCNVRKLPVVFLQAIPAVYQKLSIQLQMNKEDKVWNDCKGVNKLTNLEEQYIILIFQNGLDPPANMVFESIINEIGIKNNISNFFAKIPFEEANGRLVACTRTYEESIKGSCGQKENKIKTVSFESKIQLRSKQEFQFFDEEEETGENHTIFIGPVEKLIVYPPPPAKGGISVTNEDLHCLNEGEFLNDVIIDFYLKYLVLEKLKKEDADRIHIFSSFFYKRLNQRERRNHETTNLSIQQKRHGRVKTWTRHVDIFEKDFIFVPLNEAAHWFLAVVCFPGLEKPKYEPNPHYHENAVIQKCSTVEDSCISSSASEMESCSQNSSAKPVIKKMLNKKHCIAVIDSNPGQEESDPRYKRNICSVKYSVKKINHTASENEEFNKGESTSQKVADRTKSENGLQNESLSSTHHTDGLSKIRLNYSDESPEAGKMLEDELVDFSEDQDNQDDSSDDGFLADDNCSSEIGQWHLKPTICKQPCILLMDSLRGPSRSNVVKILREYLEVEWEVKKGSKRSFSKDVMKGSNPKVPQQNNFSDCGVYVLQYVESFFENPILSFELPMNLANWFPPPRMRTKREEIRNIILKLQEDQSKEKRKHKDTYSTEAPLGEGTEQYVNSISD

Caspase-3 = biological target: T5, Caspase-3 (Homo sapiens, UniProt P42574); format: functional;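 further: Dose-response selectivity test against caspase-3 for candidate inhibitors of sentrin-specific proteases (SENPs)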
T5 sequence (P42574 whole entry): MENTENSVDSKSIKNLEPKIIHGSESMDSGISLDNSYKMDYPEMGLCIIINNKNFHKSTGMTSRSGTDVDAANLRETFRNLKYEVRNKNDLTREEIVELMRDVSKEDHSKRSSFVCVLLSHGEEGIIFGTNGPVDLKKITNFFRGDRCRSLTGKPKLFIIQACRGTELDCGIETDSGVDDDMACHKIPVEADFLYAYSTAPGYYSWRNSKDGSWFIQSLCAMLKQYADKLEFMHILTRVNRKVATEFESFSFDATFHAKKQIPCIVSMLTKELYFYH

[7] = biological target: T6, Sentrin-specific protease 7 (Homo sapiens, UniProt Q9BQF6); format: functional;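 further: Luminescence-based dose-response confirmation of ultra-high-throughput screening hits, measuring inhibition of SENP7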
T6 sequence (Q9BQF6 whole entry): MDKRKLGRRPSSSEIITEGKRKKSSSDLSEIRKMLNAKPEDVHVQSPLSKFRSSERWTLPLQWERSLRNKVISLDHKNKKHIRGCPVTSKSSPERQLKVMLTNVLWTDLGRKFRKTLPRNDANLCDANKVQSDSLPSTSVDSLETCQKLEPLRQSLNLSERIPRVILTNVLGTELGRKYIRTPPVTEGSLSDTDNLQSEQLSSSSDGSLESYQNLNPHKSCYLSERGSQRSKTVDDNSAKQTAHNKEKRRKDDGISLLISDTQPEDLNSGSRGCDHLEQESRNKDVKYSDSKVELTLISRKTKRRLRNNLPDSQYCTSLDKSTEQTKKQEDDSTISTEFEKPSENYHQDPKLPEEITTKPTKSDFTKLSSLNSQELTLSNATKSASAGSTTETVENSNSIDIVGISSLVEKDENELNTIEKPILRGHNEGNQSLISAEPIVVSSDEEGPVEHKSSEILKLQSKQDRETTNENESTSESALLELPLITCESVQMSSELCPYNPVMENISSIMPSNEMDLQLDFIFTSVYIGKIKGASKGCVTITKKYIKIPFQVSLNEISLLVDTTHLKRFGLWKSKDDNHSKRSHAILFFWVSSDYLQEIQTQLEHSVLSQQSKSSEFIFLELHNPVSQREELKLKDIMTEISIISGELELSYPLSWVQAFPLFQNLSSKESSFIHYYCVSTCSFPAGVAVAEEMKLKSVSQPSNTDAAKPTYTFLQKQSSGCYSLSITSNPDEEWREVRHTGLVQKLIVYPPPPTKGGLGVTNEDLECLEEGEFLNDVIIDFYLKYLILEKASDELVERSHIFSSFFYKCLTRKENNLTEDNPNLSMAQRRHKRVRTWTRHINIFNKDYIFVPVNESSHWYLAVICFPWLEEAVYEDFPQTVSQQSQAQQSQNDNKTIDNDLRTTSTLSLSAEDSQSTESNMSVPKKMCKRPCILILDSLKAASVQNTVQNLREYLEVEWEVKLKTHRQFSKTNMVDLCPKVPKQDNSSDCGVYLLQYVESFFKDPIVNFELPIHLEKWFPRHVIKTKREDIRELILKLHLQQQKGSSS

Cytochrome P450 1A2 = biological target: T7, Cytochrome P450 1A2 (Homo sapiens, UniProt P05177);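 further: PubChem cytochrome P450 panel assay, CYP1A2 panel member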
T7 sequence (P05177 whole entry): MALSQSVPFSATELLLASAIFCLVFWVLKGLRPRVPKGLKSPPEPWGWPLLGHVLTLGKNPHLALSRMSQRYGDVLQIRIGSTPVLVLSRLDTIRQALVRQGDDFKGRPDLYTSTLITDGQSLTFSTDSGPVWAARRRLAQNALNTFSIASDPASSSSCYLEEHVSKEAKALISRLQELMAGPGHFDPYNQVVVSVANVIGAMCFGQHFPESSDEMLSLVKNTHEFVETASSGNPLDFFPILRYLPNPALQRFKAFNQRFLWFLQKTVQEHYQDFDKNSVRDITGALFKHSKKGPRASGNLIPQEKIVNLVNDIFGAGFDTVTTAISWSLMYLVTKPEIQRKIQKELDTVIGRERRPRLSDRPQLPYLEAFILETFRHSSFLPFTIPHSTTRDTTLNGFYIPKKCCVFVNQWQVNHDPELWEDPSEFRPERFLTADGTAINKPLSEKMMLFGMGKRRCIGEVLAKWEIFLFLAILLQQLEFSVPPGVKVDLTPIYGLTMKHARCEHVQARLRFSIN

Cytochrome P450 2D6 = Cytochrome P450 2D6 (Homo sapiens, UniProt P10635);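 further: CYP2D6 member of a cytochrome P450 panel assay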
Sequence of Cytochrome P450 2D6 (P10635 whole entry): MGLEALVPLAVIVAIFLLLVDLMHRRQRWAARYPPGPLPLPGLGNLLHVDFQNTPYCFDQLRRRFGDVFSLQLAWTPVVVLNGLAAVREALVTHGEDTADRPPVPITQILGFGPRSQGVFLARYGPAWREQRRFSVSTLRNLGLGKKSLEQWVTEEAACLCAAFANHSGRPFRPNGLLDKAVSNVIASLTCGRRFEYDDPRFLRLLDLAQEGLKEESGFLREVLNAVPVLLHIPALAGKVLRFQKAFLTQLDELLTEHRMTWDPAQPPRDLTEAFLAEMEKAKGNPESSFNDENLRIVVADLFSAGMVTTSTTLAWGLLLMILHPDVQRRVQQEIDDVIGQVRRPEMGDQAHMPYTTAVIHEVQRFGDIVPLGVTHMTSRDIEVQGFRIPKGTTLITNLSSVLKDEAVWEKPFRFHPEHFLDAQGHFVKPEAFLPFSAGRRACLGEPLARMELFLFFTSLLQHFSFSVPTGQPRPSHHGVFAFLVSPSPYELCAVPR

[8] = DRD fibroblast viability loss – cell-based, non-viral oncogenic, luminescence, dose response (AID 1934); format: functional; conditions: Homo sapiens
BJ [9] = assay: BJ-TERT-LT-ST fibroblast viability loss – cell-based, RAS-independent, luminescence, dose response (AID 1935); format: functional; conditions: Homo sapiens;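 further: BJ fibroblasts immortalized with TERT plus LT and ST oncogenes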
BJ [10] = assay: cells; format: functional, cell-based; conditions: Homo sapiens
BJ [11] = assay: BJ-TERT fibroblast viability loss – cell-based, RAS-independent, luminescence, dose response (AID 1933); format: functional; conditions: Homo sapiens

Sequence of Cytochrome P450 2C9 (P11712 whole entry): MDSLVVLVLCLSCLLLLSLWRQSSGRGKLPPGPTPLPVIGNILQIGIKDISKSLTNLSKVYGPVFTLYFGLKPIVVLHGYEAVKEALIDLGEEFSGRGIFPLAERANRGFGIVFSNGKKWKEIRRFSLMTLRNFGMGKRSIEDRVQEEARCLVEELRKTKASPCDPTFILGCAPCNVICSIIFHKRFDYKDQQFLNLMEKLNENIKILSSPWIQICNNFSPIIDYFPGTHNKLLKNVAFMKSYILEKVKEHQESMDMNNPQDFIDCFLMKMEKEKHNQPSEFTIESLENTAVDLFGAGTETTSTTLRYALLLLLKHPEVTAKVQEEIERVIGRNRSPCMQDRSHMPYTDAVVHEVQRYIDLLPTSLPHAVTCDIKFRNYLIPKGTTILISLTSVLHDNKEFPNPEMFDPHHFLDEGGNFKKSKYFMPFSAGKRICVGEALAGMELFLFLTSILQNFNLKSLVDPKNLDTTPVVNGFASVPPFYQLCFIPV
Sequence of Cytochrome P450 2C19 (P33261 whole entry): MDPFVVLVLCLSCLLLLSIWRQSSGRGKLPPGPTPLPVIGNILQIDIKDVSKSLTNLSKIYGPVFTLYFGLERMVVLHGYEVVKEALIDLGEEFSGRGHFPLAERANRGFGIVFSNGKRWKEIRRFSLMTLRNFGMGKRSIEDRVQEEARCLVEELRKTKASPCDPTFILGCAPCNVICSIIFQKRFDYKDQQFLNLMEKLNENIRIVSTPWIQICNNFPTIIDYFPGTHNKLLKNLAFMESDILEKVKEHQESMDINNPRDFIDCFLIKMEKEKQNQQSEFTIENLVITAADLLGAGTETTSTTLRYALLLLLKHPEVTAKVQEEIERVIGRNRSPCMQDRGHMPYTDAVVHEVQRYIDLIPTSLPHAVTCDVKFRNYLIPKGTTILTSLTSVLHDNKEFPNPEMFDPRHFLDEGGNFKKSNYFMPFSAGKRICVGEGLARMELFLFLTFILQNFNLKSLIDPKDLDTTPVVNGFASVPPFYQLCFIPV

SMILES | AC50 (Cytochrome P450 2C9) | IC50 [5] | IC50 [6] | IC50 (Caspase-3) | IC50 [7] | further results
Cl.OC1(c2ccc(F)cc2)CCNC1 (stereo unspecified) | inconclusive | – | – | – | – | AC50 (Cytochrome P450 2C19): inconclusive
CC1CCc2c(sc3nc(CN4CCN(S(=O)(=O)c5ccccc5[N+](=O)[O-])CC4)nc(O)c23)C1 (stereo unspecified) | – | – | – | – | – | IC50 (Fatty acid synthase [1]): 4.32 µM (active); IC50 (Fatty acid synthase [2]): 4.55 µM (active)
Cc1ccc(NC(S)=NCCN2CCOCC2)cc1C | inconclusive | – | – | – | – | AC50 (Cytochrome P450 3A4): 15.8 µM (inconclusive)
Cc1ccc([N+](=O)[O-])cc1S(=O)(=O)Nc1ccc(-c2ccc(N3CCCC3)nn2)cc1 | – | – | – | – | – | IC50 (Fatty acid synthase [1]): 13.7 µM (active); IC50 (Fatty acid synthase [2]): 8.02 µM (active)
O=C(c1ccc2c3n(nc2c1)-c1ccccc1CO3)N1CCCCC1 | – | – | – | – | – | EC50 [3]: 11.9 µM (active); EC50 (BJ [4]): > 133 µM (inactive); EC50 (Streptokinase A): > 150 µM (not active); EC50 (Streptococcus): 30.6 µM (active)
Cc1ccc(C(=O)Nc2ccc3c(c2)OCO3)cc1Cl | – | > 100 µM (inactive) | > 100 µM (inactive) | 13.4 µM (active) | 5.94 µM (active) | –
CCOC(=O)c1ccc(-c2ccc3c(c2)CCC3)nc1C | – | 45.2 µM (active) | 26.3 µM (active) | 22.8 µM (active) | 6.3 µM (active) | –
COc1ccccc1-c1cc(C(=O)Nc2cc(C)n(Cc3ccc(Cl)cc3)n2)no1 | inconclusive | – | – | – | – | AC50 (Cytochrome P450 1A2): 0.794 µM (inconclusive); AC50 (Cytochrome P450 2D6): 0.891 µM (inconclusive)
O=C(CCCCCCCCCCC(=O)NCc1cccnc1)NCc1cccnc1 | – | – | – | – | – | EC50 (BJ [4]): > 133 µM (inactive); EC50 [8]: > 150 µM (not active); EC50 (BJ [9]): > 150 µM (inconclusive); EC50 (BJ [10]): 1.85 µM (inconclusive); EC50 (BJ [11]): > 75 µM (not active)
O=C(Cc1ccccc1)N/N=C/C=C/c1cccc([N+](=O)[O-])c1 | inconclusive | – | – | – | – | AC50 (Cytochrome P450 1A2): 15.8 µM (inconclusive); AC50 (Cytochrome P450 2C19): inconclusive
O=C(Nc1nnc(C(F)(F)F)s1)c1ccc(Br)s1 | – | 24.1 µM (active) | 22.6 µM (active) | 18.8 µM (active) | 15.5 µM (active) | –
CC(C)Cn1c(SCC(=O)c2c(N)n(C)c(=O)n(C)c2=O)nc2ccccc21 | inconclusive | – | – | – | – | AC50 (Cytochrome P450 1A2): 25.1 µM (inconclusive)
CC(C)Oc1ccc2c(=O)c(-c3ccccc3)coc2c1 [IPRIFLAVONE] | – | 94.8 µM (active) | 57.2 µM (active) | 19.7 µM (active) | 5.35 µM (active) | –
COc1ccccc1NC(=O)c1nn(-c2cccc(C(F)(F)F)c2)ccc1=O | inconclusive | – | – | – | – | –
CCOc1ccc(/C=C2\CCc3ccccc3C2=O)cc1 | – | 1.88 µM (active) | 1.42 µM (active) | 1.5 µM (active) | 1.22 µM (active) | –
